Assay results reported in patent US20200407717A1, “METHODS OF MODULATING ANTISENSE ACTIVITY” (Ionis Pharmaceuticals, Inc., priority 2018, published 2020).
e = 2'-O-(2-methoxyethyl) (MOE); d = 2'-deoxy (DNA)

Key:
EGF-EGFR signaling = assay: EGFR signaling western blot (p-EGFR, p-ERK), A431 cells; type: cell-based; conditions: 2 μM for 16 hours
Method: In order to test the effects of a PS-ASO on EGFR signaling, A431 cells were incubated with compound no. 116847 or no PS-ASO compound for 16 hours. All cells were then treated with EGF prior to being subjected to the pulse-chase protocol described above. Cell lysates were run on a SDS-PAGE gel and analyzed by sequential western blot for phosphorylated EGFR (P-EGFR), total EGFR (T-EGFR), phosphorylated ERK (P-ERK), and total ERK (T-ERK) using the antibodies described above for EGFR, 4370 for P-ERK (Cell Signaling Technology), and 4695 for T-ERK (Cell Signaling Technology).
110080, 25690, 25699, 395251, or 395254 at 2 μM for 16 hours prior to carrying out the pulse-chase experiment described above.

Malat1 RNA = assay: Antisense activity by RT-qPCR, Malat1, A431 cells; type: cell-based
Method: A431 cells were grown at 10,000 cells per well and pre-treated with a variety of growth factors to determine if the addition of exogenous growth factors affects antisense activity or uptake of modified antisense oligonucleotides in a cell. The growth factors used were EGF, insulin growth factor (IGF), transforming growth factor (TGF), […] (VEGF), hepatocyte growth factor (HGF), platelet growth factor (PGF) and fibroblasts growth factor (FGF). To test antisense activity, cells were treated for 4 hours with a growth factor or vehicle alone, and then treated with compound no. 25690 (complementary to Drosha), compound no. 395254 (complementary to Malat1), or vehicle alone. RNA was isolated from the cells and Drosha or Malat1 RNA levels were measured by RT-qPCR. Human primer probe set 13816 (forward sequence […], designated herein as SEQ ID NO: 3; reverse sequence […], designated herein as SEQ ID NO: 4; probe sequence […], designated herein as SEQ ID NO: 5) was used to measure Drosha mRNA levels and primer probe set RTS2736 (forward sequence […], designated herein as SEQ ID NO: 6; reverse sequence […], designated herein as SEQ ID NO: 7; probe sequence TGCCACATCGCCACCCCGT, designated herein as SEQ ID NO: 8) was used to measure Malat1 RNA levels. Drosha and Malat1 RNA levels were normalized to total RNA content, as measured by RIBOGREEN®. Results are presented in the tables below as normalized RNA levels, relative to untreated control cells.
A431 cells were treated with EGF or TGF at 200 ng/mL in the presence or absence of 1 μM of the EGFR tyrosine kinase inhibitor PD174265. The cells were then treated with compound no. 25690 or compound no. 395254 as in Example 8. Total RNA was isolated and analyzed by RT-qPCR, as in Example 8.
Following siRNA treatment, cells were treated with compound no. 25690 or compound no. 395254 in the presence or absence of EGF. 16 hours after treatment with a PS-ASO with or without EGF, cells were harvested, and RNA levels were analyzed via RT-qPCR as in Example 8.

**Q.** Which results are given for “AGGAAGGAAGCTGGCGATCT (sugars from the 5' end e5 d10 e5, all phosphorothioate, methylation of C not given here) [compound 25690]”?
**A.** EGFR signaling (EGF-EGFR signaling): not be impacted; Malat1 RNA (% Control) (Malat1 RNA; 2.0 nM, Control, Table 19): 100.0 % Control; Malat1 RNA (% Control) (Malat1 RNA; 2.0 nM, EGF+PD174265): 100.0 % Control; Malat1 RNA (% Control) (Malat1 RNA; 2.0 nM, EGF, Table 19): 100.0 % Control; Malat1 RNA (% Control) (Malat1 RNA; 3.9 nM, Control, Table 19): 99.2 % Control; Malat1 RNA (% Control) (Malat1 RNA; 3.9 nM, EGF+PD174265): 110.0 % Control; Malat1 RNA (% Control) (Malat1 RNA; 3.9 nM, EGF, Table 19): 105.0 % Control; Malat1 RNA (% Control) (Malat1 RNA; 7.8 nM, Control, Table 19): 98.2 % Control; Malat1 RNA (% Control) (Malat1 RNA; 7.8 nM, EGF+PD174265): 97.2 % Control; Malat1 RNA (% Control) (Malat1 RNA; 7.8 nM, EGF, Table 19): 78.2 % Control; Malat1 RNA (% Control) (Malat1 RNA; 15.6 nM, Control, Table 19): 72.3 % Control; Malat1 RNA (% Control) (Malat1 RNA; 15.6 nM, EGF+PD174265): 61.2 % Control; Malat1 RNA (% Control) (Malat1 RNA; 15.6 nM, EGF, Table 19): 60.1 % Control; Malat1 RNA (% Control) (Malat1 RNA; 31.3 nM, Control, Table 19): 64.4 % Control; Malat1 RNA (% Control) (Malat1 RNA; 31.3 nM, EGF+PD174265): 59.8 % Control; Malat1 RNA (% Control) (Malat1 RNA; 31.3 nM, EGF, Table 19): 40.5 % Control; Malat1 RNA (% Control) (Malat1 RNA; 62.5 nM, Control, Table 19): 59.6 % Control; Malat1 RNA (% Control) (Malat1 RNA; 62.5 nM, EGF+PD174265): 50.2 % Control; Malat1 RNA (% Control) (Malat1 RNA; 62.5 nM, EGF, Table 19): 43.9 % Control; Malat1 RNA (% Control) (Malat1 RNA; 125 nM, Control, Table 19): 46.2 % Control; Malat1 RNA (% Control) (Malat1 RNA; 125 nM, EGF+PD174265): 39.6 % Control; Malat1 RNA (% Control) (Malat1 RNA; 125 nM, EGF, Table 19): 25.9 % Control; Malat1 RNA (% Control) (Malat1 RNA; 250 nM, Control, Table 19): 36.1 % Control; Malat1 RNA (% Control) (Malat1 RNA; 250 nM, EGF+PD174265): 45.6 % Control; Malat1 RNA (% Control) (Malat1 RNA; 250 nM, EGF, Table 19): 18.9 % Control; Malat1 RNA (% Control) (Malat1 RNA; 500 nM, Control, Table 19): 35.5 % Control; Malat1 RNA (% Control) (Malat1 RNA; 500 nM, EGF+PD174265): 42.5 % Control; Malat1 RNA (% Control) (Malat1 RNA; 500 nM, EGF, Table 19): 14.5 % Control; Malat1 RNA (% Control) (Malat1 RNA; 1000 nM, Control, Table 19): 22.3 % Control; Malat1 RNA (% Control) (Malat1 RNA; 1000 nM, EGF+PD174265): 22.3 % Control; Malat1 RNA (% Control) (Malat1 RNA; 1000 nM, EGF, Table 19): 15.2 % Control; Malat1 RNA (% Control) (Malat1 RNA; 2000 nM, Control, Table 19): 19.2 % Control; Malat1 RNA (% Control) (Malat1 RNA; 2000 nM, EGF+PD174265): 15.3 % Control; Malat1 RNA (% Control) (Malat1 RNA; 2000 nM, EGF, Table 19): 12.4 % Control; Malat1 RNA (% Control) (Malat1 RNA; 4000 nM, Control, Table 19): 17.2 % Control; Malat1 RNA (% Control) (Malat1 RNA; 4000 nM, EGF+PD174265): 13.2 % Control; Malat1 RNA (% Control) (Malat1 RNA; 4000 nM, EGF, Table 19): 10.2 % Control; IC50 (Malat1 RNA; Control, Table 19): 0.043 ± 0.0057 µM; IC50 (Malat1 RNA; EGF 200 ng/mL + 1 μM PD174265, Table 19): 0.047 ± 0.0053 µM; IC50 (Malat1 RNA; EGF 200 ng/mL, Table 19): 0.019 ± 0.003 µM
